According to article PMC6406907, “A H2AX–CARP-1 Interaction Regulates Apoptosis Signaling Following DNA Damage” (Cancers, 2019):
No end group written: not given here. HA = not defined here

How the values were obtained:
MDA-MB-468 cells = conditions: 10 μM dose, ref [16]; cited from earlier work
From the text: Here, we utilized human TNBC MDA-MB-468 and human cervical cancer HeLa cells to conduct an MTT-based dose-response analysis using Adriamycin and CFM compounds. […] Since Adriamyci ...

γH2AX = assay: Confocal immunofluorescence of γH2AX, HeLa; type: cell-based, human; conditions: HeLa expressing EGFP-H2AX (1–35) vs EGFP, Adriamycin-treated
Description: (§1) Cells were plated onto chamber slides one day before treatment. Following treatment of cells with respective compounds, the adherent cells were fixed with 5% formaldehyde for 10 min and then washed with phosphate buffered saline (PBS). Samples were blocked (0.5% NP-40, 5% milk powder, 1% fetal bovine serum) for 30 min. After a single wash with PBS, cells were incubated with primary antibodies for 45 to 60 min. Coverslips were washed with PBS and then incubated with secondary antibodies for another 45 to 60 min. They were then washed with PBS and mounted with 0.1 μg/mL 4′,6′-diamidino-2-phenylindole (DAPI) containing mounting solution. […]
Our next objective was to analyze the biological significance of the CARP-1–H2AX interaction in cells. […] Next, we measured activation of caspases as an apoptosis readout in cells expressing myc-His-tagged wild-type CARP-1 or CARP-1 (Δ600–650) proteins that were either untreated or treated with Adriamycin or CFM compounds as detailed in Section 2. We utilized a lower, 4–5 μM dose of Adriamycin or CFM compounds because a 10 μM Adriamycin dose caused interference in signal output/readout in this particular assay, likely due to background fluorescence that is emitted by higher dose of Adriamycin. […]

HeLa cells = assay: Transduction/localization of TAT-tagged proteins, HeLa; type: cell-based, human; conditions: 300 μg/mL, confocal
Description: as §1
We further tested whether and the extent to which transient and ectopic expression of CARP-1 (636–650) peptide would also interfere with the cell-growth inhibition by Adriamycin. […] The wild-type MDA-MB-468 or HeLa cells were pre-incubated with His-TAT-HA-EGFP or His-TAT-HA-CARP-1 (636–650) proteins, and presence of GFP and CARP-1 (636–650) was determined by immuno-cytochemical staining followed by photography using a confocal microscope as above. […]
Figure S9. […] Multiple cells from each of the confocal images in the γH2AX column of Figure 8C were subjected to quantitation for levels of γH2AX. The quantitation of the images of stained cells was carried out by using ImageJ software (imagej.nih.gov/ij/plugins/track/jacop2). […]

## O=C1N(Cc2ccccc2Cl)c2ccccc2C12NN=C(c1cccc(Cl)c1)S2 (stereo not drawn) [CFM-4.16]
MDA-MB-468 cells
  inhibition of growth: robust inhibition of growth

## EGFP-H2AX (1–35): EGFP-tagged fusion protein stably expressed in MDA-MB-468 and HeLa sublines (MSGRGKTGGKARAKAKSRSSRAGLQFPVGRVHRLL; also: EGFP fusion, end not given here; UniProt P16104 1-35, looked up, fragment)
γH2AX
  nuclear presence of γH2AX: increased nuclear presence of γH2AX

## His-TAT-HA-CARP-1 (636–650): His-TAT-HA-tagged CARP-1 (636–650) peptide, >95% purity, commercially synthesized ({His-TAT-HA}-PKTMKVNDLRKELES; reading uncertain; UniProt Q8IX12 636-650, looked up, fragment)
HeLa cells
  cellular localization after transduction: predominantly present in the cytoplasmic region
